Measurements taken from publication PMC9312901 (2022).

Experiments:
[1] = test system: APT (3-O-C12-HSL aptamer) (DNA, aptamer) GCAATGGTACGGTACTTCCCGGGGCCCGCTTCTGGTGCGGTGTACTAGTGACCGCAAAAGTGCACGCTACTTTGCTAA; assay: EIS aptasensor (C-SPE/AuNPs/APT/MCH); conditions: 10 µM compound, 30 min, room temperature; [Fe(CN)6]3-/4- redox probe
[2] = test system: APT (3-O-C12-HSL aptamer) (DNA, aptamer) GCAATGGTACGGTACTTCCCGGGGCCCGCTTCTGGTGCGGTGTACTAGTGACCGCAAAAGTGCACGCTACTTTGCTAA; assay: SPR, steady-state affinity fit; conditions: Na+ 100 mM; K+ 100 mM; Mg2+ 10 mM (TRIS buffer; running buffer printed only as 10 mM TRIS); 10 mM TRIS pH 7.4 running buffer; aptamer on gold chip, MCH blocked; 10-1000 nM
[3] = test system: APT (3-O-C12-HSL aptamer) (DNA, aptamer) GCAATGGTACGGTACTTCCCGGGGCCCGCTTCTGGTGCGGTGTACTAGTGACCGCAAAAGTGCACGCTACTTTGCTAA; assay: SPR, kinetic 1:1 Langmuir fit (kd/ka); conditions: Na+ 100 mM; K+ 100 mM; Mg2+ 10 mM (TRIS buffer; running buffer printed only as 10 mM TRIS); 10 mM TRIS pH 7.4 running buffer; aptamer on gold chip, MCH blocked; 10-1000 nM
[4] = test system: APT (3-O-C12-HSL aptamer) (DNA, aptamer) GCAATGGTACGGTACTTCCCGGGGCCCGCTTCTGGTGCGGTGTACTAGTGACCGCAAAAGTGCACGCTACTTTGCTAA; assay: DPV on C-SPE/AuNPs/APT/MCH electrode; conditions: 0.5 mM MB, 30 min; measured in 10 mM PBS pH 7.4; MB lost on successive blank incubations

For `CCCC(=O)N[C@H]1CCOC1=O`, the binding [1] was “weak”.

For `CCCCCCCC(=O)CC(=O)N[C@H]1CCOC1=O`, the binding [1] was “yes”.

`CCCCCCCCCC(=O)CC(=O)N[C@H]1CCOC1=O` was tested, and the “KD,equilibrium” value [2] was 106.7 ± 9.3 nM and the “KD,kinetic” value [3] was 87.1 ± 10 nM.

In the case of `CCCCCCCCCCCC(=O)N[C@H]1CCOC1=O`, the binding [1] is reported as “yes”.

With `CN(C)c1ccc2nc3ccc(N(C)C)cc3[s+]c2c1` the binding [4] was “yes”.
